This note sets out measurements from patent publication US20040110763A1, “Pyrazolopyridine compound and pharmaceutical use thereof” (priority 2000, published 2004).

By melting point is commonly meant the temperature of the solid-liquid transition. `CC(C)n1nc(-c2c(-c3ccccc3)nn3ccc(OCC(=O)N4CCN(C(=O)N(C)C)CC4)cc23)ccc1=O` [Example 55, N,N-dimethyl-4-[{3-(3-oxo-2-isopropyl-2,3-dihydropyridazin-6-yl)-2-phenylpyrazolo[1,5-a]pyridin-5-yl}oxy]acetyl-1-piperazine carboxamide] showed a melting point of 151 to 152 °C. In the case of `COc1cccn2nc(-c3ccccc3)c(-c3ccc(=O)n(C(C)C)n3)c12` [Example 194, 4-Methoxy-3-(3-oxo-2-isopropyl-2,3-dihydropyridazin-6-yl)-2-phenylpyrazolo[1,5-a]pyridine] it was 185 to 186 °C; in that of `COc1ccn2nc(-c3ccccc3)c(-c3ccc(=O)n(C(C)C)n3)c2c1Br` [Example 135, 4-bromo-5-methoxy-3-(3-oxo-2-isopropyl-2,3-dihydropyridazin-6-yl)-2-phenylpyrazolo[1,5-a]pyridine], 205 to 206 °C. In the case of `CC(C)Oc1ccn2nc(-c3ccccc3)c(-c3ccc(=O)n(C(C)C)n3)c2c1` [Example 10, 5-Isopropoxy-3-(3-oxo-2-isopropyl-2,3-dihydropyridazin-6-yl)-2-phenylpyrazolo[1,5-a]pyridine] it was 162 to 163 °C. In the case of `CCOCCNC(=O)COc1ccn2nc(-c3ccccc3)c(-c3ccc(=O)n(C(C)C)n3)c2c1` [Example 67, N-(2-Ethoxyethyl)-2-{[3-(3-oxo-2-isopropyl-2,3-dihydropyridazin-6-yl)-2-phenylpyrazolo[1,5-a]pyridin-5-yl]oxy}acetamide] it was 126.5 to 127.5 °C. For the compound `CC(C)n1nc(-c2c(-c3ccccc3)nn3ccc(OCC(=O)NC4CCC(O)CC4)cc23)ccc1=O` (centres unmarked) [Example 64, N-(4-Hydroxycyclohexyl)-2-{[3-(3-oxo-2-isopropyl-2,3-dihydropyridazin-6-yl)-2-phenylpyrazolo[1,5-a]pyridin-5-yl]oxy}acetamide], the melting point was in the range of 146 to 148 °C. The value for `CC(C)n1nc(-c2c(-c3ccccc3)nn3ccc(Oc4ccncc4)cc23)ccc1=O` [Example 35, 5-(4-Pyridinyloxy)-3-(3-oxo-2-isopropyl-2,3-dihydropyridazin-6-yl)-2-phenylpyrazolo[1,5-a]pyridine] was 218.5 to 219.5 °C. The value for `CC(C)n1nc(-c2c(-c3ccccc3)nn3ccc(N4CCOCC4)cc23)ccc1=O` [Example 98, 5-(4-Morpholinyl)-3-(3-oxo-2-isopropyl-2,3-dihydropyridazin-6-yl)-2-phenylpyrazolo[1,5-a]pyridine] was 182 to 187 °C; that for `CC(C)n1nc(-c2c(-c3ccccc3)nn3ccc(OCCN4CCCCC4)cc23)ccc1=O` [Example 16, 5-[2-(1-Piperidinyl)ethoxy]-3-(3-oxo-2-isopropyl-2,3-dihydropyridazin-6-yl)-2-phenylpyrazolo[1,5-a]pyridine] was 144 to 144.5 °C; that for `COCCNC(=O)COc1ccn2nc(-c3ccccc3)c(-c3ccc(=O)n(C(C)C)n3)c2c1` [Example 66, N-(2-Methoxyethyl)-2-[{3-(3-oxo-2-isopropyl-2,3-dihydropyridazin-6-yl)-2-phenylpyrazolo[1,5-a]pyridin-5-yl}oxy]acetamide] was 144.5 to 145.5 °C. The value for `CCn1nc(-c2c(-c3ccc(F)cc3)nn3ccc(OC)cc23)ccc1=O` [Example 131, 5-Methoxy-3-(3-oxo-2-ethyl-2,3-dihydropyridazin-6-yl)-2-(4-fluorophenyl)pyrazolo[1,5-a]pyridine] was 179 to 180 °C; that for `CC(C)n1nc(-c2c(-c3ccccc3)nn3ccc(OC4CCN(C(=O)N(C)C)CC4)cc23)ccc1=O` [Example 56, N,N-Dimethyl-4-[{3-(3-oxo-2-isopropyl-2,3-dihydropyridazin-6-yl)-2-phenylpyrazolo[1,5-a]pyridin-5-yl}oxy]-1-piperidine carboxamide] was 164 to 166 °C. Compound `COC1CCN(c2ccn3nc(-c4ccccc4)c(-c4ccc(=O)n(C(C)C)n4)c3c2)CC1` [Example 106, 5-(4-methoxy-1-piperidinyl)-3-(3-oxo-2-isopropyl-2,3-dihydropyridazin-6-yl)-2-phenylpyrazolo[1,5-a]pyridine] showed a melting point of 177 to 178 °C. In turn, `CC(C)n1nc(-c2c(-c3ccccc3)nn3ccc(OCC(=O)NCCc4ccccn4)cc23)ccc1=O` [Example 60, 2-{[3-(3-oxo-2-isopropyl-2,3-dihydropyridazin-6-yl)-2-phenylpyrazolo[1,5-a)pyridin-5-yl]oxy}-N-[2-(2-pyridinyl)-ethyl]acetamide] showed a melting point of 188 to 190 °C.

With `CC(C)n1nc(-c2c(-c3ccccc3)nn3ccc(OCCC4CCCC4)cc23)ccc1=O` [Example 33, 5-(2-cyclopentylethoxy)-3-(3-oxo-2-isopropyl-2,3-dihydropyridazin-6-yl)-2-phenylpyrazolo[1,5-a]pyridine], the melting point was 159.5 to 160.5 °C. The value for `CC(C)n1nc(-c2c(-c3ccccc3)nn3cccc(O)c23)ccc1=O` [Example 195, 4-Hydroxy-3-(3-oxo-2-isopropyl-2,3-dihydropyridazin-6-yl)-2-phenylpyrazolo[1,5-a]pyridine] was 229 to 230 °C. In the case of `CC(C)n1nc(-c2c(-c3ccccc3)nn3ccc(OCCc4ccccc4)cc23)ccc1=O` [Example 9, 5-Phenethyloxy-3-(3-oxo-2-isopropyl-2,3-dihydropyridazin-6-yl)-2-phenylpyrazolo[1,5-a]pyridine] it was 154.5 to 155.5 °C; in that of `CC(C)n1nc(-c2c(-c3ccccc3)nn3ccc(OCC(=O)NC4CC4)cc23)ccc1=O` [Example 61, N-Cyclopropyl-2-{[3-(3-oxo-2-isopropyl-2,3-dihydropyridazin-6-yl)-2-phenylpyrazolo[1,5-a]pyridin-5-yl]oxy}acetamide], 199 to 200 °C. For the compound `CNC(=O)c1ccn2nc(-c3ccccc3)c(-c3ccc(=O)n(C(C)C)n3)c2c1` [Example 88, N-Methyl-3-(3-oxo-2-isopropyl-2,3-dihydropyridazin-6-yl)-2-phenylpyrazolo[1,5-a]pyridine-5-carboxamide], the melting point was in the range of 225 to 226 °C. In the case of `CCn1nc(-c2c(-c3ccccc3)nn3ccc(OC)cc23)ccc1=O` [Example 116, 5-Methoxy-3-(3-oxo-2-ethyl-2,3-dihydropyridazin-6-yl)-2-phenylpyrazolo[1,5-a]pyridine] it was 148 to 149 °C. The value for `COc1ccc(S(=O)(=O)Oc2ccn3nc(-c4ccccc4)c(-c4ccc(=O)n(C(C)C)n4)c3c2)cc1` [Example 7, 5-(4-methoxyphenylsulfonyl)oxy-3-(3-oxo-2-isopropyl-2,3-dihydropyridazin-6-yl)-2-phenylpyrazolo[1,5-a]pyridine] was 155 to 157 °C; that for `CC(C)n1nc(-c2c(-c3ccccc3)nn3ccc(C(=O)NCc4ccccn4)cc23)ccc1=O` [Example 144, N-(2-Pyridinylmethyl)-3-(3-oxo-2-isopropyl-2,3-dihydropyridazin-6-yl)-2-phenylpyrazolo[1,5-a]pyridine-5-carboxamide] was 193 to 194 °C.

As for `CC(C)n1nc(-c2c(-c3ccccc3)nn3ccc(C#CC(C)(C)O)cc23)ccc1=O` [Example 136, 5-(3-hydroxy-3-methyl-1-butynyl)-3-(3-oxo-2-isopropyl-2,3-dihydropyridazin-6-yl)-2-phenylpyrazolo[1,5-a]pyridine], the melting point lay in the range of 171 to 172 °C. The compound `CC(C)n1nc(-c2c(-c3ccccc3)nn3ccc(OCCN4C[C@@H](C)O[C@@H](C)C4)cc23)ccc1=O` [Example 24, 5-[2-{(2R,6S)-2,6-Dimethyl-4-morpholinyl}ethoxy]-3-(3-oxo-2-isopropyl-2,3-dihydropyridazin-6-yl)-2-phenylpyrazolo[1,5-a]pyridine] showed a melting point of 157.5 to 158 °C. As to `CC(C)n1nc(-c2c(-c3ccccc3)nn3ccc(OCc4cccnc4)cc23)ccc1=O` [Example 20, 5-(3-Pyridinylmethoxy)-3-(3-oxo-2-isopropyl-2,3-dihydropyridazin-6-yl)-2-phenylpyrazolo[1,5-a]pyridine], the melting point is 145 to 146 °C. In the case of `COCN(COC)c1ccn2nc(-c3ccccc3)c(-c3ccc(=O)n(C(C)C)n3)c2c1` [Example 154, 5-[bis(methoxymethyl)amino]-3-(3-oxo-2-isopropyl-2,3-dihydropyridazin-6-yl)-2-phenylpyrazolo[1,5-a]pyridine] it was 148 to 150 °C; in that of `COc1ccn2nc(-c3ccccc3)c(-c3ccc(=O)n(C4CCCN(C)C4)n3)c2c1` (centres unmarked) [Example 123, 5-Methoxy-3-[3-oxo-2-(1-methylpiperidin-3-yl)-2,3-dihydropyridazin-6-yl]-2-phenylpyrazolo[1,5-a]pyridine], 179 to 180 °C; in that of `COC(=O)Nc1ccn2nc(-c3ccccc3)c(-c3ccc(=O)n(C(C)C)n3)c2c1` [Example 151, Methyl 3-(3-oxo-2-isopropyl-2,3-dihydropyridazin-6-yl)-2-phenylpyrazolo[1,5-a]pyridin-5-ylcarbamate], 213 to 214 °C. The value for `CCOC(=O)COc1ccn2nc(-c3ccccc3)c(-c3ccc(=O)n(C(C)C)n3)c2c1` [Example 38, Ethyl {[3-(3-oxo-2-isopropyl-2,3-dihydropyridazin-6-yl)-2-phenylpyrazolo[1,5-a]pyridin-5-yl]oxy}acetate] was 193 to 194 °C; that for `CCN(CC)C(=O)COc1ccn2nc(-c3ccccc3)c(-c3ccc(=O)n(C(C)C)n3)c2c1` [Example 41, N,N-Diethyl-2-{[3-(3-oxo-2-isopropyl-2,3-dihydropyridazin-6-yl)-2-phenylpyrazolo[1,5-a]pyridin-5-yl]oxy}acetamide] was 125 to 126.5 °C; that for `COc1ccn2nc(-c3ccccc3F)c(-c3ccc(=O)n(C)n3)c2c1` [Example 126, 5-Methoxy-3-(3-oxo-2-methyl-2,3-dihydropyridazin-6-yl)-2-(2-fluorophenyl)pyrazolo[1,5-a]pyridine] was 220.5 to 221.5 °C. `CC(C)n1nc(-c2c(-c3ccccc3)nn3ccc(C(=O)NCCN(C)C)cc23)ccc1=O` [Example 76, N-[2-(Dimethylamino)ethyl]-3-(3-oxo-2-isopropyl-2,3-dihydropyridazin-6-yl)-2-phenylpyrazolo[1,5-a]pyridine-5-carboxamide] came in with a melting point of 157 to 158 °C.
